The values below come from patent publication US10030027B2, “Soluble guanylate cyclase stimulators” (MERCK SHARP & DOHME CORP., priority 2015, dated 2018).

The target in one assay is sGC α1/β1 heterodimer (Homo sapiens (Human), UniProt Q02108+Q02153). The assay is described as follows: Cell-based sGC functional assay (cyclic GMP assay for sGC activator: CASA assay). Details: % Activation: concentration or dose not given beside the values. The settings on record: CHO-K1/sGC cells; for Emax: CHO-K1, activity expressed as percentage of compound A (standard), read-out: % Activation; for EC50: inflection point, 4P fit, read-out: IP; for % Activation: activity expressed as percentage of compound A (standard). In a few lines: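 CHO-K1 cells stably expressing sGC α1/β1 were pre-incubated with or without 1 μM DETA-NO (30 min, 25 °C), then exposed to compounds for 1 hr at 37 °C with 0.5 mM IBMX. Intracellular cGMP was read by HTRF and expressed as a percentage of a reference heme-dependent activator's maximum.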

Assay [1] deals with human recombinant sGC enzyme (Homo sapiens (Human), UniProt Q02108+Q02153). As to the kind of experiment: Size Exclusion Chromatography (SEC) competition binding assay using [3H] Ex-77B as the radioligand. The conditions noted are these: [3H] Ex-77B radioligand, 24 hours at 37° C. In a few lines: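 Recombinant human sGC binding measured by competition against tritiated Ex-77B radioligand, with non-specific binding defined by 1 μM unlabeled Ex-77B.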

Each structure is given as a SMILES string.

Regarding `CC1(c2cn(C(C)(C)C(=O)O)nn2)C(=O)Nc2nc(-c3nn(CCC(F)(F)C(F)(F)F)c4cc(Cl)ccc34)nc(N)c21` (stereo not shown) [Example 30B, 2-(4-{4-amino-2-[6-chloro-1-(3,3,4,4,4-pentafluorobutyl)-1H-indazol-3-yl]-5-methyl-6-oxo-6,7-dihydro-5H-pyrrolo[2,3-d]pyrimidin-5-yl}-1H-1,2,3-triazol-1-yl)-2-methylpropanoic acid], on sGC α1/β1 heterodimer, the Emax is 93% and the EC50 was 176 nM. Also, the Ki in assay [1] is 0.56 nM.

Turning to `CC1(c2nn(CC(=O)O)c(=O)o2)C(=O)Nc2nc(-c3nn(CCC(F)(F)C(F)(F)F)c4cc(Cl)ccc34)nc(N)c21` (stereo not shown) [Example 98A, [5-{4-Amino-2-[6-chloro-1-(3,3,4,4,4-pentafluorobutyl)-1H-indazol-3-yl]-5-methyl-6-oxo-6,7-dihydro-5H-pyrrolo[2,3-d]pyrimidin-5-yl}-2-oxo-1,3,4-oxadiazol-3(2H)-yl]acetic acid], on sGC α1/β1 heterodimer, the Emax worked out at 83% and the EC50 stood at 254 nM. Further, the Ki in assay [1] worked out at 0.395 nM.

For the molecule `CC(C)(Cc1csc([C@]2(C)C(=O)Nc3nc(-c4nn(CC5CCCCO5)c5cc(F)ccc45)nc(N)c32)n1)C(=O)O` (single isomer, unassigned) [Example 133AB], at sGC α1/β1 heterodimer, the “% Activation” value was found to be 111.4% and the EC50 is 714 nM. Moreover, in assay [1], the inhibition constant Ki worked out at 0.359 nM.

For `CC(C)(Cn1cc(C2(C)C(=O)Nc3nc(-c4nn(Cc5ccccc5F)c5cc(F)ccc45)nc(N)c32)cn1)C(=O)O` (stereo not shown) [Example 192A, 3-(4-{4-amino-2-[6-fluoro-1-(2-fluorobenzyl)-1H-indazol-3-yl]-5-methyl-6-oxo-6,7-dihydro-5H-pyrrolo[2,3-d]pyrimidin-5-yl}-1H-pyrazol-1-yl)-2,2-dimethyl-propanoic acid], at sGC α1/β1 heterodimer, the Emax was 103% and the EC50 was 1040 nM. Moreover, in assay [1], the Ki was 0.116 nM.

With `CC(C)(Cn1cc(C2(C)C(=O)Nc3nc(-c4nn(Cc5ccccc5F)c5cc(Cl)ccc45)nc(N)c32)nn1)C(=O)O` (single isomer, unassigned) [Example 140A, 3-(4-{4-Amino-2-[6-chloro-1-(2-fluorobenzyl)-1H-indazol-3-yl]-5-methyl-6-oxo-6,7-dihydro-5H-pyrrolo[2,3-d]pyrimidin-5-yl}-1H-1,2,3-triazol-1-yl)-2,2-dimethylpropanoic acid], on sGC α1/β1 heterodimer, the EC50 amounted to 798 nM. For the same molecule, the Ki in assay [1] was 0.227 nM.

Turning to `CC(C)(Cc1csc([C@]2(C)C(=O)Nc3nc(-c4nn(CC5CCCCO5)c5ncccc45)nc(N)c32)n1)C(=O)O` (single isomer, unassigned) [Example 123AB], on sGC α1/β1 heterodimer, the “% Activation” value was 95.8% and the EC50 came to 1960 nM. In addition, the Ki in assay [1] was found to be 0.874 nM.

For the molecule `C[C@H](NC(=O)CCc1ccc([C@]2(C)C(=O)Nc3nc(-c4nn(Cc5ccccc5F)c5ncccc45)nc(N)c32)cc1)C(=O)O` [Example 103B, (5S)-(3-(4-{4-amino-2-[1-(2-fluorobenzyl)-1H-pyrazolo[3,4-b]pyridin-3-yl]-5-methyl-6-oxo-6,7-dihydro-5H-pyrrolo[2,3-d]pyrimidin-5-yl}phenyl)propanoyl)-L-alanine], on sGC α1/β1 heterodimer, the Emax is 104% and the EC50 worked out at 2950 nM. For the same molecule, the Ki in assay [1] turned out to be 0.045 nM.

Turning to `CC1(c2ccc(/C=C/C(=O)O)cc2)C(=O)Nc2nc(-c3nn(Cc4ccccc4F)c4ncccc34)nc(N)c21` (stereo not shown) [Example 217A, (2E)-3-(4-{4-amino-2-[1-(2-fluorobenzyl)-1H-pyrazolo[3,4-b]pyridin-3-yl]-5-methyl-6-oxo-6,7-dihydro-5H-pyrrolo[2,3-d]pyrimidin-5-yl}phenyl)prop-2-enoic acid], on sGC α1/β1 heterodimer, the Emax was 124% and the EC50 was determined as 1420 nM. In assay [1], the Ki worked out at 0.067 nM.

For the molecule `CC1(N2CCC(CCC(=O)O)C2)C(=O)Nc2nc(-c3nn(Cc4ccccc4F)c4cc(Cl)ccc34)nc(N)c21` (single isomer, unassigned) [Example 261C, 3-[1-{4-Amino-2-[6-chloro-1-(2-fluorobenzyl)-1H-indazol-3-yl]-5-methyl-6-oxo-6,7-dihydro-5H-pyrrolo[2,3-d]pyrimidin-5-yl}pyrrolidin-3-yl]propanoic acid], the EC50 at sGC α1/β1 heterodimer is 293 nM. Also, the Ki in assay [1] amounted to 0.074 nM.

As for `CC1(c2cccc(CCC(=O)O)c2)C(=O)Nc2nc(-c3nn(Cc4ccccc4F)c4cc(F)ccc34)nc(N)c21` (stereo not shown) [Example 61A, 3-(3-{4-amino-2-[6-fluoro-1-(2-fluorobenzyl)-1H-indazol-3-yl]-5-methyl-6-oxo-6,7-dihydro-5H-pyrrolo[2,3-d]pyrimidin-5-yl}phenyl)propanoic acid], on sGC α1/β1 heterodimer, the Emax came out at 109% and the EC50 is 299 nM. Further, the Ki in assay [1] is 0.066 nM.

Regarding `CC(C)(Cc1csc([C@]2(C)C(=O)Nc3nc(-c4nn(Cc5ccc(F)cc5)c5cc(Cl)ccc45)nc(N)c32)n1)C(=O)O` [Example 174A, (S)-3-(2-{4-amino-2-[6-chloro-1-(4-fluorobenzyl)-1H-indazol-3-yl]-5-methyl-6-oxo-6,7-dihydro-5H-pyrrolo[2,3-d]pyrimidin-5-yl}-1,3-thiazol-4-yl)-2,2-dimethyl-propanoic acid], on sGC α1/β1 heterodimer, the Emax worked out at 121% and the EC50 is 682 nM. In assay [1], the inhibitory constant (Ki) came to 0.173 nM.

For the molecule `CC1CCC(Cn2nc(-c3nc(N)c4c(n3)NC(=O)C4(C)c3nc(CC(C)(C)C(=O)O)co3)c3cccnc32)CC1` (single isomer, unassigned) [Example 126AB, 3-{2-[4-amino-5-methyl-2-{1-[4-methylcyclohexylmethyl]-1H-pyrazolo[3,4-b]pyridin-3-yl}-6-oxo-6,7-dihydro-5H-pyrrolo[2,3-d]pyrimidin-5-yl]-1,3-oxazol-4-yl}-2,2-dimethylpropanoic acid], on sGC α1/β1 heterodimer, the “% Activation” value stood at 109.2% and the EC50 was determined as 199 nM. The inhibition constant Ki in assay [1] was 0.077 nM.

As for `C[C@@]1(c2ccc(CCc3nn[nH]n3)cc2)C(=O)Nc2nc(-c3nn(Cc4ccccc4F)c4ncccc34)nc(N)c21` [Example 240B, (S)-4-amino-2-[1-(2-fluoro-benzyl)-1H-pyrazolo[3,4-b]pyridin-3-yl]-5-methyl-5-{4-[2-(2H-tetrazol-5-yl)ethyl]phenyl}-5,7-dihydro-6H-pyrrolo[2,3-d] pyrimidin-6-one], at sGC α1/β1 heterodimer, the Emax came to 104% and the EC50 worked out at 749 nM. Also, the Ki in assay [1] was 0.075 nM.

Take `CC(C)(Cc1csc([C@]2(C)C(=O)Nc3nc(-c4nn(CCC(F)(F)C(F)(F)F)c5ncccc45)nc(N)c32)n1)C(=O)NO` [Example 97B, (S)-3-(2-{4-Amino-5-methyl-6-oxo-2-[1-(3,3,4,4,4-pentafluorobutyl)-1H-pyrazolo[3,4-b]pyridin-3-yl]-6,7-dihydro-5H-pyrrolo[2,3-d]pyrimidin-5-yl}-1,3-thiazol-4-yl)-N-hydroxy-2,2-dimethylpropanamide]: on sGC α1/β1 heterodimer, the Emax turned out to be 122% and the EC50 came to 1150 nM. The inhibition constant Ki in assay [1] was 0.799 nM.

Turning to `CC1(c2cc(-c3nn[nH]n3)ccn2)C(=O)Nc2nc(-c3nn(Cc4ccccc4F)c4cc(Cl)ccc34)nc(N)c21` (stereo not shown) [Example 243A, 5-[4-(2H-tetrazol-5-yl)pyridin-2-yl]-4-amino-2-[6-chloro-1-(2-fluorobenzyl)-1H-indazol-3-yl]-5-methyl-5,7-dihydro-6H-pyrrolo[2,3-d] pyrimidin-6-one], at sGC α1/β1 heterodimer, the Emax worked out at 101% and the EC50 is 3600 nM. For the same molecule, the Ki in assay [1] is 0.062 nM.

For `CC(C)(Cc1csc([C@]2(C)C(=O)Nc3nc(-c4nn(CC5CCCC5)c5cc(Cl)ccc45)nc(N)c32)n1)C(=O)O` [Example 162A, (S)-3-(2-{4-amino-2-[6-chloro-1-(cyclopentyl-methyl)-1H-indazol-3-yl]-5-methyl-6-oxo-6,7-dihydro-5H-pyrrolo[2,3-d]pyrimidin-5-yl}-1,3-thiazol-4-yl)-2,2-dimethyl-propanoic acid], on sGC α1/β1 heterodimer, the Emax worked out at 76.5% and the EC50 came to 69 nM. The Ki in assay [1] stood at 0.15 nM.

With `CC(C)(Cc1ccc(C2(C)C(=O)Nc3nc(-c4nn(Cc5ccccc5F)c5cc(Cl)ccc45)nc(N)c32)nc1)C(=O)O` (stereo not shown) [Example 131B, 3-(6-{4-amino-2-[6-chloro-1-(2-fluorobenzyl)-1H-indazol-3-yl]-5-methyl-6-oxo-6,7-dihydro-5H-pyrrolo[2,3-d]pyrimidin-5-yl}pyridin-3-yl)-2,2-dimethylpropanoic acid], at sGC α1/β1 heterodimer, the Emax came to 120% and the EC50 came to 1060 nM. For the same molecule, the Ki in assay [1] was determined as 0.125 nM.

`CC(C)(Cc1coc(C2(C)C(=O)Nc3nc(-c4nn(Cc5cccc(F)c5)c5ncccc45)nc(N)c32)n1)C(=O)O` (stereo not shown) [Example 150A, 3-(2-{4-amino-2-[1-(3-fluoro-benzyl)-1H-pyrazolo [3,4-b]pyridin-3-yl]-5-methyl-6-oxo-6,7-dihydro-5H-pyrrolo[2,3-d]pyrimidin-5-yl}-1,3-oxazol-4-yl)-2,2-dimethyl-propanoic acid]: at sGC α1/β1 heterodimer, the Emax was found to be 102% and the EC50 turned out to be 294 nM. Also, the inhibitory constant (Ki) in assay [1] was determined as 0.096 nM.

Turning to `CC(C)(Cc1coc(C2(C)C(=O)Nc3nc(-c4nn(Cc5cccc(F)c5F)c5cc(F)ccc45)nc(N)c32)n1)C(=O)O` (stereo not shown) [Example 200A, 3-(2-{4-amino-2-[1-(2,3-difluoro-benzyl)-6-fluoro-1H-indazol-3-yl]-5-methyl-6-oxo-6,7-dihydro-5H-pyrrolo[2,3-d]pyrimidin-5-yl}-1,3-oxazol-4-yl)-2,2-dimethyl-propanoic acid], on sGC α1/β1 heterodimer, the Emax is 120% and the EC50 was 220 nM. Further, in assay [1], the Ki was found to be 0.052 nM.
